Measurements published in article PMC7730235, “Discovery of a Novel Class of Covalent Dual Inhibitors Targeting the Protein Kinases BMX and BTK” (International Journal of Molecular Sciences, 2020).

What was measured:
[1] = biological target: T1, Full length BTK (C-terminal NanoLuc fusion) (Homo sapiens, UniProt Q06187); assay: Cellular NanoBRET target engagement assay in HEK293T cells; type: cell-based; details: 0.5 µM Tracer K5, 2 h incubation
T1 construct: Full length BMX and BTK was cloned into pFC32K; expressed in transfected cells; host or cells: HEK293T
Protocol: (§1) Full length BMX and BTK was cloned into pFC32K (Promega, Madison, WI, USA) for expression of a C-terminal NanoLuc fusion. The plasmids were transfected into HEK293T cells cultured in DMEM (Gibco, Waltham, MA, USA) supplemented with 10% fetal bovine serum (Gibco, Waltham, MA, USA) and Penicillin/Streptamycin (Gibco, Waltham, MA, USA). NanoBRET assays were performed using the protocol published previously. Briefly, after transfection and 20 h incubation cells were harvested and subsequently resuspended in OptiMEM (Gibco, Waltham, MA, USA). Cells were aliquoted onto […] (Greiner, Kremsmünster, Austria), and inhibitors as well as 0.5 µM Tracer K4 (Promega) for BMX or 0.5 µM Tracer K5 (Promega, Madison, WI, USA) for BTK were added using an ECHO acoustic dispenser. The plates were incubated at 37 °C with 5% CO2 for 2 h prior to the addition of both NanoBRET NanoGlo substrate (Promega, Madison, WI, USA) and extracellular NanoLuc inhibitor. BRET luminescence (450 nm for donor emission and 610 nm for BRET signal) was measured using PHERAstar FSX plate reader (BMG Labtech, Ortenberg, Germany). Milli-BRET units (mBU) were calculated as a ratio between BRET signal and the overall measured luminescence. A dose–response fitting was applied and IC50 values were calculated using the Prism software. […] Experiments were performed as tripicates and repeated at least three times.

[2] = biological target: T2, Full length BMX (C-terminal NanoLuc fusion) (Homo sapiens, UniProt P51813); assay: as above; type: cell-based; details: 0.5 µM Tracer K4, 2 h incubation
T2 construct: Full length BMX and BTK was cloned into pFC32K; expressed in transfected cells; host or cells: HEK293T
T2 sequence (P51813 1-675): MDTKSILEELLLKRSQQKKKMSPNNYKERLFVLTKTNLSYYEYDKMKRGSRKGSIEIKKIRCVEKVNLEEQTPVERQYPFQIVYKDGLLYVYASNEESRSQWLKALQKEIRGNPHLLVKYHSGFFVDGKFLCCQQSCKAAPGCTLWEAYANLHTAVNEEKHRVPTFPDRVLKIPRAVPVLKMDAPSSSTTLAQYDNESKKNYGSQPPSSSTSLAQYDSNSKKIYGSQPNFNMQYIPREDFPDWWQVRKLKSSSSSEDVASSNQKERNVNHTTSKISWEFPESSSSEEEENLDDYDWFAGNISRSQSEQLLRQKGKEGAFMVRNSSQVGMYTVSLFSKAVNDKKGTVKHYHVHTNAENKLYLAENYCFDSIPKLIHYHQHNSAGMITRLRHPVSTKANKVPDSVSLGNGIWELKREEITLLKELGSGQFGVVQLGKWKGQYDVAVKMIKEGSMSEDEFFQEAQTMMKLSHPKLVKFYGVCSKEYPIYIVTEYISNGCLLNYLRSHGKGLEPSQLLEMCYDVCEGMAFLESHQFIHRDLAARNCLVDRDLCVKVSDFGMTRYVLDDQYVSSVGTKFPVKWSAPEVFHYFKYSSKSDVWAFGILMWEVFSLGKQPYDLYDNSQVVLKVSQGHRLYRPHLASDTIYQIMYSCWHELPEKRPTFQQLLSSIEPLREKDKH
Protocol: as §1

[3] = biological target: T3, JAK3 (Homo sapiens, UniProt P52333); assay: Radiometric kinase assay (Reaction Biology HotSpot); type: biochemical; details: for JAK3 IC50 of nonreactive analogs (not shown): in words, data not shown
T3 construct: purchased Reaction Biology Corporation
T3 sequence (P52333 1-1124): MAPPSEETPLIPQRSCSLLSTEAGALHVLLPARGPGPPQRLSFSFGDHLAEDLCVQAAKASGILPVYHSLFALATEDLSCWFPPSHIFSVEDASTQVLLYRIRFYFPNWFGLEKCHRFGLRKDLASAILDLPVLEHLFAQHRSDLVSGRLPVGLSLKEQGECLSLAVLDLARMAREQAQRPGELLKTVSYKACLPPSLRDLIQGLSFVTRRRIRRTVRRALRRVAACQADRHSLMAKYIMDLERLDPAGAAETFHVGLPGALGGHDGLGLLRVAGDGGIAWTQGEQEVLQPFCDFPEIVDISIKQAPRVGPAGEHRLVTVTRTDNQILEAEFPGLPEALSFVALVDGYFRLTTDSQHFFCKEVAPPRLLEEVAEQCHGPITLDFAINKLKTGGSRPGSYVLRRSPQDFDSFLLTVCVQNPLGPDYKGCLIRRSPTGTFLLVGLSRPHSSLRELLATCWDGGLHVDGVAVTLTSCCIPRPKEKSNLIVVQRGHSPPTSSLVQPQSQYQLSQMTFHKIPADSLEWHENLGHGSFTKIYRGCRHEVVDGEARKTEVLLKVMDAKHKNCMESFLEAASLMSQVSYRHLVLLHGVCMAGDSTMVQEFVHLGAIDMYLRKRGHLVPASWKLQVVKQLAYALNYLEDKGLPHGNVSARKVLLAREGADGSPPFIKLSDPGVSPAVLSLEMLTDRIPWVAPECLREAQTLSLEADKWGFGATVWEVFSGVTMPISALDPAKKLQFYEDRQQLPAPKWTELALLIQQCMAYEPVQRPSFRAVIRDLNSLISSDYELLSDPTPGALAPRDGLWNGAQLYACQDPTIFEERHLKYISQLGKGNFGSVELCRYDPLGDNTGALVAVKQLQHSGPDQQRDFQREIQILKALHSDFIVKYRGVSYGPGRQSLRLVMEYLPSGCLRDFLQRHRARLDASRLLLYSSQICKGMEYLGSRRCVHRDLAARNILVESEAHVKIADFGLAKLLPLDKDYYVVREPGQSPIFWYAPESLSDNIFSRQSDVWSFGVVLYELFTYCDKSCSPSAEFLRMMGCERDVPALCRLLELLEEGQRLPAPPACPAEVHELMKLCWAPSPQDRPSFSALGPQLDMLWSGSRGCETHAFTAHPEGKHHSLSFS
Protocol: (§2) If not mentioned differently, in vitro profiling of compounds was performed at Reaction Biology Corporation using the HotSpot™ assay platform.

[4] = biological target: T4, kinase domain of BMX (Homo sapiens, UniProt P51813); assay: Mass spectrometric investigation of covalent binding to BMX (ESI-TOF); details: 4 °C; for covalent labeling of BMX (in words): 1.5-fold molar excess, complete labeling refers to 30 min
T4 construct: The kinase domains of JAK3 and BMX at 2 μM
Protocol: The kinase domain of BMX was diluted to 0.05 mM with buffer containing 20 mM Tris pH 8.0, 200 mM NaCl, 0.5 mM TCEP (pH 7.0) and was subsequently mixed with 0.075 mM inhibitors (ratio of protein to inhibitor of 1:1.5). The mixture was incubated at 4°C. The samples were taken at different time points, the reaction stopped by diluting the sample with a 200-fold excess of 1% formic acid. The denatured protein and the adducts were assessed using electrospray time-of-flight (ESI-TOF) mass spectrometry.

[5] = biological target: T4, kinase domain of BMX; assay: Thermal shift (ΔTm) assay; type: binding; details: 2 μM kinase domain, 10 μM inhibitor; mean ± SD of at least three measurements
Protocol: (§3) The kinase domains of JAK3 and BMX at 2 μM were mixed with the inhibitors at 10 μM, and subsequently SyPRO orange dye (Invitrogen Carlsbad, CA, USA) was added. The thermal shift assay and data evaluation were performed as described previously using a Real-Time PCR Mx3005p machine (Stratagene, La Jolla, CA, USA).

[6] = biological target: T5, kinase domain of JAK3 (Homo sapiens, UniProt P52333); assay: Thermal shift (ΔTm) assay; type: binding; details: 2 μM kinase domain, 10 μM inhibitor; mean ± SD of at least three measurements
T5 construct: The kinase domains of JAK3 and BMX at 2 μM; made in house
Protocol: as §3

[7] = biological target: T6, BMX (Homo sapiens, UniProt P51813); assay: Radiometric kinase assay (Reaction Biology HotSpot); type: biochemical; details: radiometric HotSpot, five-dose singlicate, [ATP] = 10 μM
T6 construct: purchased Reaction Biology Corporation
T6 sequence (P51813 1-675): T2 sequence (P51813 1-675)
Protocol: as §2

[8] = 1.5-fold molar excess of inhibitor, 30 min
[9] = 1.5-fold molar excess of inhibitor, 60 min
[10] = 1.5-fold molar excess of inhibitor, 120 min
[11] = 1.5-fold molar excess of inhibitor, 240 min

T1 sequence (Q06187 whole entry, the tested form may be a part): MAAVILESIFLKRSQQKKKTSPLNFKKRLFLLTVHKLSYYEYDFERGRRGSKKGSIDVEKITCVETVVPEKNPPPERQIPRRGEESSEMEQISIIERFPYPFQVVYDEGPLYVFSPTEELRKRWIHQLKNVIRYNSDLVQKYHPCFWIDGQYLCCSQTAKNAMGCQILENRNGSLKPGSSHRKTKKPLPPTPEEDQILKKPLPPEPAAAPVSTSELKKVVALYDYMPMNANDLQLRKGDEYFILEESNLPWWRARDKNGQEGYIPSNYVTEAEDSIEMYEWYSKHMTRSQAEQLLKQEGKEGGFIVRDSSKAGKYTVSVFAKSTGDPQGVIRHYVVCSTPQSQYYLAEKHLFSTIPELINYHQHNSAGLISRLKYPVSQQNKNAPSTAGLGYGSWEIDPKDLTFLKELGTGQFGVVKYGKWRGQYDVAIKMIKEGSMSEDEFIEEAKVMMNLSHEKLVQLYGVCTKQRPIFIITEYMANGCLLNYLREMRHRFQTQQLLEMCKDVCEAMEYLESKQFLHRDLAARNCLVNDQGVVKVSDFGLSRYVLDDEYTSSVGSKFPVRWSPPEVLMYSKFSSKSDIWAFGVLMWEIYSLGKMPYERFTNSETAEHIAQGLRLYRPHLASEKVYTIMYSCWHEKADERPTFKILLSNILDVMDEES

SMILES: CCC(=O)Nc1cccc(-c2c[nH]c3ncccc23)c1 [Compound 9b, N-(3-(1H-pyrrolo[2,3-b]pyridin-3-yl)phenyl)propionamide]
- IC50 [1]: 9220 ± 3700 nM
- IC50 [2]: > 10000 nM
- JAK3 IC50 of nonreactive analogs (not shown) [3]: micromolar range
- native (unmodified) BMX fraction, 30 min [4, 8]: 100%
- native (unmodified) BMX fraction, 60 min [4, 9]: 100%
- native (unmodified) BMX fraction, 120 min [4, 10]: 100%
- native (unmodified) BMX fraction, 240 min [4, 11]: 100%
- covalent labeling of BMX (in words) [4]: no modification was detectable

SMILES: c1ccc(-c2c[nH]c3ncccc23)cc1 [Compound 9c, 3-phenyl-1H-pyrrolo[2,3-b]pyridine]
- JAK3 IC50 of nonreactive analogs (not shown) [3]: micromolar range

SMILES: CCC(=O)Nc1cccc(-c2c[nH]c3ncc(C(N)=O)cc23)c1 [Compound 10b, 3-(3-propionamidophenyl)-1H-pyrrolo[2,3-b]pyridine-5-carboxamide]
- IC50 [1]: > 10000 nM
- IC50 [2]: > 10000 nM
- JAK3 IC50 of nonreactive analogs (not shown) [3]: micromolar range
- native (unmodified) BMX fraction, 30 min [4, 8]: 100%
- native (unmodified) BMX fraction, 60 min [4, 9]: 100%
- native (unmodified) BMX fraction, 120 min [4, 10]: 100%
- native (unmodified) BMX fraction, 240 min [4, 11]: 100%
- covalent labeling of BMX (in words) [4]: no modification was detectable

SMILES: NC(=O)c1cnc2[nH]cc(-c3ccccc3)c2c1 [Compound 10c, 3-phenyl-1H-pyrrolo[2,3-b]pyridine-5-carboxamide]
- JAK3 IC50 of nonreactive analogs (not shown) [3]: micromolar range

SMILES: C=CC(=O)Nc1cccc(-c2c[nH]c3ncc(C(=O)NC)cc23)c1 [Compound 11c, 3-(3-acrylamidophenyl)-N-methyl-1H-pyrrolo[2,3-b]pyridine-5-carboxamide]
- ΔTm at 10 µM [5]: 7.84 ± 0.04 °C
- ΔTm at 10 µM [6]: 10.3 ± 0.37 °C

SMILES: C=CC(=O)Nc1cccc(-c2c[nH]c3ncc(C(=O)NCC)cc23)c1 [Compound 11d, 3-(3-acrylamidophenyl)-N-ethyl-1H-pyrrolo[2,3-b]pyridine-5-carboxamide]
- ΔTm at 10 µM [5]: 7.35 ± 0.19 °C
- ΔTm at 10 µM [6]: 10.3 ± 0.26 °C

SMILES: C=CC(=O)Nc1cccc(-c2c[nH]c3ncc(C(=O)NCC4CC4)cc23)c1 [Compound 11e, 3-(3-acrylamidophenyl)-N-(cyclopropylmethyl)-1H-pyrrolo[2,3-b]pyridine-5-carboxamide]
- ΔTm at 10 µM [5]: 6.94 ± 0.07 °C
- ΔTm at 10 µM [6]: 9.64 ± 0.28 °C

SMILES: C=CC(=O)Nc1cccc(-c2c[nH]c3ncc(C(=O)NCC4CCCCC4)cc23)c1 [Compound 11f, 3-(3-acrylamidophenyl)-N-(cyclohexylmethyl)-1H-pyrrolo[2,3-b]pyridine-5-carboxamide]
- ΔTm at 10 µM [5]: 3.68 ± 0.13 °C
- ΔTm at 10 µM [6]: 5.54 ± 0.82 °C

SMILES: C=CC(=O)Nc1cccc(-c2c[nH]c3ncc(C(=O)NCc4ccccc4)cc23)c1 [Compound 11g, 3-(3-acrylamidophenyl)-N-benzyl-1H-pyrrolo[2,3-b]pyridine-5-carboxamide]
- ΔTm at 10 µM [5]: 6.84 ± 0.23 °C
- ΔTm at 10 µM [6]: 8.29 ± 1.26 °C

SMILES: C=CC(=O)Nc1cccc(-c2c[nH]c3ncc(NC(=O)c4ccco4)cc23)c1 [Compound 12d, N-(3-(3-acrylamidophenyl)-1H-pyrrolo[2,3-b]pyridin-5-yl)furan-2-carboxamide]
- IC50 ([3]; radiometric HotSpot, five-dose singlicate, [ATP] = 10 μM): 1080 nM
- IC50 [7]: 4 nM
- ΔTm at 10 µM [5]: 10.75 ± 0.09 °C
- ΔTm at 10 µM [6]: 9.93 ± 0.12 °C

SMILES: C=CC(=O)Nc1cccc(-c2c[nH]c3ncc(NC(=O)c4ccccc4)cc23)c1 [Compound 12e, N-(3-(3-acrylamidophenyl)-1H-pyrrolo[2,3-b]pyridin-5-yl)benzamide]
- ΔTm at 10 µM [5]: 11.37 ± 0.03 °C
- ΔTm at 10 µM [6]: 10.9 ± 0.95 °C

SMILES: C=CC(=O)Nc1cccc(-c2c[nH]c3ncc(NC(C)=O)cc23)c1 [Compound 12f, N-(3-(5-acetamido-1H-pyrrolo[2,3-b]pyridin-3-yl)phenyl)acrylamide]
- ΔTm at 10 µM [5]: 10.6 ± 0.12 °C
- ΔTm at 10 µM [6]: 13.4 ± 0.43 °C

SMILES: C=CC(=O)Nc1cccc(-c2c[nH]c3ncc(NC(=O)Cc4ccccc4)cc23)c1 [Compound 12h, N-(3-(5-(2-phenylacetamido)-1H-pyrrolo[2,3-b]pyridin-3-yl)phenyl)acrylamide]
- ΔTm at 10 µM [5]: 11.9 °C
- ΔTm at 10 µM [6]: 12.1 °C

SMILES: C=CC(=O)Nc1cccc(-c2c[nH]c3ncc(NC(=O)Cc4cccs4)cc23)c1 [Compound 12i, N-(3-(5-(2-(thiophen-2-yl)acetamido)-1H-pyrrolo[2,3-b]pyridin-3-yl)phenyl)acrylamide]
- IC50 [1]: 37 ± 10 nM
- IC50 [2]: 17 ± 7 nM
- IC50 [7]: 16 nM
- BMX covalent adduct fraction, 30 min [4, 8]: 100%
- BMX covalent adduct fraction, 60 min [4, 9]: 100%
- BMX covalent adduct fraction, 120 min [4, 10]: 100%
- BMX covalent adduct fraction, 240 min [4, 11]: 100%
- covalent labeling of BMX (in words) [4]: complete labeling
- ΔTm at 10 µM [5]: 11.5 °C
- ΔTm at 10 µM [6]: 10.1 °C
